Blank lines part the entries; values can stand above or below the molecule they belong to.
Key:
[1] = test system: Molt-4 lymphoblastic leukemia cells; experiment: Cytotoxicity of jasmonate derivatives in Molt-4 cells (Example 1, XTT/MTS assay); format: cell-based, Human; details: for Cytotoxic potency at 0.1 mM, first screening: Molt-4, 0.1 mM; for Cytotoxic potency, second screen: Molt-4, 0.01-0.1 mM, FIG. 2; for Cytotoxic potency compared to methyl jasmonate, first screening: Molt-4, 0.1-1 mM, FIGS. 1A and 1B; for Cytotoxic potency compared to methyl jasmonate, third screen: Molt-4, FIG. 3 and Table 1; for inhibition at 1 µM / inhibition at 10 µM / inhibition at 100 µM: Homo sapiens, MOLT-4, 24 hours, value (±spread), read-out: Cytotoxicity in Molt-4 cells (% of inhibition compared to control); for inhibition at 1 µM: 0.001 mM; for inhibition at 10 µM: 0.01 mM; for inhibition at 100 µM: 0.1 mM
Experimental: (§1) Measurement of reduction in the number of living cells was determined by the CellTiter 96 Aqueous Non-Radioactive Cell Proliferation Assay (XTT Cell Proliferation Kit assay (Biological industries, Beit-Haemek, Israel)). Upon completion of a given experiment, MTS (a tetrazolium compound) at 333 μg/ml+phenazine methosulfate (at 25 μM) was added to each well of the 96-well plate for 1 hour at 37° C. This allowed for development of a color reaction in which dehydrogenases reduce the MTS in metabolically active cells. Soluble MTS formazan product was measured at a wavelength of 490 nm using a CERES 900 HDI ELISA reader (Bio-Tek Instruments, Inc, Highland Park, Vt.).
(§2) Percentage of Optical density is directly proportional to the number of living cells in culture. Cytotoxicity (%) was calculated in the following way: [(OD of control cells —OD of drug-treated cells)/OD of control cells]×100.
The cytotoxicity of jasmonate derivatives A1-A6, B1 and B2 was compared to that of the previously studied jasmonate, methyl jasmonate (MJ). The cytotoxicity of each compound was determined in Molt-4-Human acute lymphoblastic leukemia cell-line.
[…] Each experimental point was performed in triplicates. Untreated cells were used as control. The test compounds were prepared as a stock of 100 mM in DMSO. Dilutions were performed in culture medium and DMSO so that the maximal concentration of DMSO in each well was 0.5%. […] Cytotoxicity and optical density were determined as described above.

[2] = test system: normal peripheral blood lymphocytes (PBL), +PHA/TPA; experiment: Cytotoxicity in normal PBL pre-incubated with PHA/TPA (Example 2); format: cell-based; details: Homo sapiens, Lymphocyte, 24 h, one day incubation
Experimental: as §1, §2
(§3) Molt-4 (leukemia) cells (at 2.5×10^4/ml), and normal peripheral blood lymphocytes (PBL, at 2×10^5/ml) were incubated in 96-well plates for one day in the presence of different concentrations of methyl jasmonate, (MJ—disclosed in U.S. Pat. No. 6,469,061), and compounds A3 and A4 of the present invention at concentrations: of 0.001, 0.01, 0.1 and 0.5 mM. In some experiments, PBL were pre-incubated with 0.8 μg/ml phytohemagglutinin (PHA)+5 ng/ml TPA for […], to induce entrance into the cell cycle. These cells proliferate and therefore are similar in that respect to cancer cells, making the comparison more valid. The optical density that represented viable cells was determined as described above.

[3] = test system: normal peripheral blood lymphocytes (PBL), -PHA/TPA; experiment: Cytotoxicity in normal PBL without PHA/TPA (Example 2); format: cell-based, Human; details: for IC20 / IC50: Homo sapiens, Lymphocyte, 24 h, PBL -PHA/TPA, one day incubation; for Selective cytotoxic effect: leukemic cells vs normal lymphocytes: Molt-4 vs PBL, FIGS. 4A and 4B
Experimental: as §1, §2, §3

[4] = test system: Molt-4 (leukemia) cells; experiment: Cytotoxicity in Molt-4 cells (Example 2, selectivity); format: cell-based; details: Homo sapiens, 24 h; Molt-4, one day incubation
Experimental: as §1, §2, §3

[5] = test system: CLL (PBL, chronic lymphocytic leukemia); experiment: Cytotoxicity of B3 in CLL cells (Example 4); format: cell-based; details: Homo sapiens, CLL cell, 24 hours, n=14
Experimental: as §1, §2
Cytotoxicity of compound B3 was evaluated in 1) Molt 4 cells (an in-vitro model for transformed cells); 2) PBL (an ex vivo model for normal cells); and 3) PBL CLL—Peripheral blood lymphocytes collected from chronic lymphocytic leukemia patients (an ex vivo model for ex vivo transformed cells). […]
Compound B3 was added at concentration ranging from 0.0025-1 mM for 24 hours. […] Optical density and percentage of Cytotoxicity were determined as described above.

[6] = test system: B16; experiment: Cytotoxicity of B3 in B16 (Example 4); format: cell-based; details: Mus musculus; B16, 24 hours, n=6
Experimental: as §1, §2
(§4) Compound B3 was added at concentration ranging from 0.0025-1 mM for 24 hours. The number of repeats for each experiment is indicated by n. Untreated cells were used as control. Compound B3 was prepared as a stock of 100 mM in 100% DMSO and dilutions in medium were prepared as described above. Optical density and percentage of Cytotoxicity were determined as described above.

[7] = test system: Molt 4 cell line; experiment: ATP depletion in Molt-4 (CellTiter-Glo luminescent assay, Example 7); format: cell-based; details: Homo sapiens; Molt-4, 1 hr exposure
Experimental: The effect of methyl jasmonate and compound B3 on ATP level depletion is studied in the Molt 4 cell line using ATP kit and luminometer (Cell titer—Glo Luminescent, cell viability assay, Promega, code G7571, Ref.)
Cell preparation: Cells (Molt 4) were seeded in 96-well opaque-walled plates. The number of cells (in a volume of 100 μL/well) was: 5×10^4 cells/well. Control wells contained 100 μL medium without cells (background luminescence) Incubations were performed at 37° C., 6% CO2, using the following culture medium: RPMI 1640, 10% FCS, 2 mM L-Glutamine and penicillin 200 U/ml+200 μg/ml streptomycin or equivalent. For the cell viability assay, cells were incubated for 12 min-24 hr. in the absence or presence of methyl jasmonate or several jasmonate derivatives of the present invention at 0.05-4 mM. Reagent Preparation The CellTiter-Glo® buffer and the lyophilized substrate were thawed and equilibrated to room temperature. The buffer was mixed with the substrate by vortexing for 1 minute. […]
The plates were equilibrated to room temperature [25° C.] for 30 min. […] The plates were allowed to incubate at 25° C. for 10 min in the Luminoskan to stabilize luminescence signal. Results were read through Record luminescence [Thermo-Luminoskan Ascent] or equivalent, with integration time of 2000 m. seconds per well and blanking time 5%. […] Percent of cytotoxicity was determined described above.

[8] = test system: LNCaP; experiment: Cytotoxicity of B3 in LNCaP (Example 4); format: cell-based; details: Homo sapiens, 24 hours, n=4
Experimental: as §1, §2, §4

[9] = test system: Molt-4; experiment: Cytotoxicity of B3 in Molt-4 (Example 4); format: cell-based; details: Homo sapiens; Molt-4, 24 hours, n=12
Experimental: as §1, §2
(§5) Mononuclear cells were isolated from peripheral blood of healthy donors and treated as described above. The non-adherent PBL were pre-incubated without PHA and TPA. Molt-4 and PBL cells were seeded in 96-well plates as described above.
(§6) Compound B3 was added at concentration ranging from 0.0025-1 mM for 24 hours. The number of repeats for each experiment is indicated by n. Untreated cells were used as control. […] Optical density and percentage of Cytotoxicity were determined as described above.

[10] = test system: Molt-4 cell line; experiment: Cytotoxicity of different batches of B3 towards Molt-4 (Example 5); format: cell-based, Human
Experimental: as §1, §2
The IC50 values in Molt-4 cells for B3 were 0.06 mM in average. For cytotoxicity evaluation in different cell lines B3-IV was used.

[11] = test system: PBL, healthy donors; experiment: Cytotoxicity of B3 in PBL of healthy donors (Example 4); format: cell-based, Human
Experimental: as §1, §2, §5, §6

[12] = test system: NCI H460; experiment: Cytotoxicity of B3 in NCI H460 (Example 4); format: cell-based; details: Homo sapiens; NCI H460, 24 hours, n=3
Experimental: as §1, §2, §4

[13] = test system: Fibroblasts; experiment: Cytotoxicity of B3 in fibroblasts (Example 4); format: cell-based; details: Homo sapiens, Fibroblast, 24 hours, n=2
Experimental: as §1, §2, §4

[14] = test system: HTB38; experiment: Cytotoxicity of B3 in HTB38 (Example 4); format: cell-based; details: Homo sapiens, HTB-38; HTB38, 24 hours, n=3
Experimental: as §1, §2, §4

[15] = test system: lymphomas; details: mice; cited from earlier work
[16] = test system: Molt-4 (leukemia) cells; details: cited from earlier work
[17] = test system: normal peripheral blood lymphocytes (PBL), -PHA/TPA; details: cited from earlier work

Structure (SMILES): CCCCCC1c2nc(NC(=O)c3cnccn3)sc2CC1CC(=O)NC1CC1 (centres unmarked) [Compound A1]
- Cytotoxic potency at 0.1 mM, first screening [1]: very potent
- Cytotoxic potency, second screen [1]: most potent
- Cytotoxic potency compared to methyl jasmonate, first screening [1]: more potent than methyl jasmonate

Structure (SMILES): CCCCCC1c2nc(N)sc2CC1CC(=O)N1CCN(C)CC1 (centres unmarked) [Compound A2]
- Cytotoxic potency compared to methyl jasmonate, first screening [1]: more potent than methyl jasmonate

Structure (SMILES): CCCCCC1c2nc(NC(=O)Cc3cccs3)sc2CC1CC(=O)O (centres unmarked) [Compound A3]
- IC20 [2]: 70 µM
- IC50 [2]: 300 µM
- IC20 [3]: 30 µM
- IC50 [3]: 250 µM
- Selective cytotoxic effect: leukemic cells vs normal lymphocytes [3]: without exerting a substantial effect on normal lymphocytes
- Cytotoxic potency at 0.1 mM, first screening [1]: very potent
- Cytotoxic potency, second screen [1]: most potent
- Cytotoxic potency compared to methyl jasmonate, first screening [1]: more potent than methyl jasmonate
- Cytotoxic potency compared to methyl jasmonate, third screen [1]: significantly more potent than methyl jasmonate
- IC20 [4]: 10 µM
- IC50 [4]: 50 µM

Structure (SMILES): CCCCCC1c2nc(-c3ccccc3)sc2CC1CC(=O)N1CCC(O)CC1 (centres unmarked) [Compound A4]
- IC20 [2]: 25 µM
- IC20 [3]: < 10 µM
- Selective cytotoxic effect: leukemic cells vs normal lymphocytes [3]: without exerting a substantial effect on normal lymphocytes
- inhibition at 1 µM [1]: 4%
- inhibition at 10 µM [1]: 10%
- inhibition at 100 µM [1]: 96%
- Cytotoxic potency at 0.1 mM, first screening [1]: very potent
- Cytotoxic potency, second screen [1]: most potent
- Cytotoxic potency compared to methyl jasmonate, first screening [1]: more potent than methyl jasmonate
- Cytotoxic potency compared to methyl jasmonate, third screen [1]: significantly more potent than methyl jasmonate
- IC20 [4]: < 10 µM
- IC50 [4]: 45 µM

Structure (SMILES): CCCCCC1c2nc(NS(=O)(=O)c3cccc(F)c3)sc2CC1CC(=O)OC (centres unmarked) [Compound A5]
- Cytotoxic potency at 0.1 mM, first screening [1]: very potent
- Cytotoxic potency compared to methyl jasmonate, first screening [1]: more potent than methyl jasmonate

Structure (SMILES): CCCCCC1c2nc(Nc3ccccc3)sc2CC1CC(=O)NCCOC (centres unmarked) [Compound A6]
- Cytotoxic potency at 0.1 mM, first screening [1]: very potent
- Cytotoxic potency, second screen [1]: most potent
- Cytotoxic potency compared to methyl jasmonate, first screening [1]: more potent than methyl jasmonate

- IC50 [7]: 500 µM
Structure (SMILES): CC/C=C\CC1C(=O)CCC1CCOC(=O)CC1CCC(=O)C1C/C=C\CC (centres unmarked) [Compound B3]
- IC50 [5]: 250 µM
- IC50 [6]: 700 µM
- IC50 [8]: > 1000 µM
- IC50 [9]: 70 µM
- IC50 ([10]; Homo sapiens, MOLT-4, Molt-4): 60 µM
- IC50 ([10]; Molt-4, listed as B3 (IV)): 50 µM
- IC50 ([10]; Molt-4, listed as B3 (V)): 80 µM
- IC50 ([11]; Homo sapiens, PBL healthy donors, without PHA/TPA, 24 hours, n=12): 1000 µM
- Selective cytotoxicity towards cancer cells ([11]; Molt-4, CLL vs PBL, FIG. 5): exhibits selective cytotoxicity towards cancer cells
- IC50 [12]: > 1000 µM
- IC50 [13]: > 500 µM
- IC50 [14]: > 1000 µM

- IC50 [7]: 500 µM
Structure (SMILES): CC/C=C\CC1C(=O)CCC1CC(=O)OC (centres unmarked) [MJ, methyl jasmonate, reference compound]
- Prevention of development of lymphomas [15]: effective in preventing development of lymphomas in mice
- Cytotoxicity to Molt-4 cells (previously reported data) [16]: cytotoxic to Molt-4 cells
- IC20 [2]: > 500 µM
- IC50 [2]: > 500 µM
- IC20 [3]: > 500 µM
- IC50 [3]: > 500 µM
- Toxicity to normal lymphocytes (previously reported data) [17]: almost not toxic to normal lymphocytes
- inhibition at 1 µM [1]: 6%
- inhibition at 10 µM [1]: 5%
- inhibition at 100 µM [1]: 17%
- IC50 ([10]; Homo sapiens, MOLT-4, Molt-4): 600 µM
- IC20 [4]: 30 to 50 µM
- IC50 [4]: 100 to 500 µM

Reference: patent US8247439B2, “Jasmonate derivatives, pharmaceutical compositions and methods of use thereof” (Sepal Pharma Ltd., priority 2005, dated 2012)
